Where two headings read alike, the source gives them in different places.
Assays:
[1] = Surface Plasmon Resonance binding to immobilized 3-Lipid II; settings: SPR; for Binding on Lipid II?: Table S3, initial determination at 10 µM
Method: Surface Plasmon Resonance binding experiments were carried out on a BIAcore T100 system (BIAcore Inc., Piscataway, NY) at 25°C. The assay buffer was 10 mM HEPES, 150 mM NaCl, 0.05% surfactant P20, pH 7.4 (±3 mM EDTA) supplemented with 10% DMSO. […] For initial determination of binding, defensin mimetics were introduced into the flow-cells (30 µl/min) in the running buffer at 10 µM. Resonance signals were corrected for nonspecific binding by subtracting the background of the control flow-cell. After each analysis, the sensor chip surfaces were regenerated with 50 mM NaOH for 30 s at a flow rate 100 µl/min, and equilibrated with the buffer prior to next injection. For binding kinetics studies, binding isotherms were analyzed with manufacturer-supplied software for BIAcore T100.

[2] = system: Staphylococcus aureus ATCC 29213; assay: Antibacterial killing, 96-well turbidimetric (modified vCC) assay; type: cell-based; settings: Table S3; concentration at which 100% killing occurred, no bacterial regrowth; No = not active
Method: (§1) The antibacterial activity of defensin mimetics against Staphylococcus aureus ATCC 29213 and Escherichia coli 25922 was carried out in a 96-well turbidimetric assay essentially as described previously with the following modifications: bacteria were exposed for 30 min to compounds in 10 mM phosphate buffer containing 5% DMSO prior to addition of 2× Muller-Hinton medium. Bacterial growth was monitored for 12 hours and data were analyzed as described. Determination of MICs was performed by Micromyx, LLC (Kalamazoo, Michigan) according to CLSI standards.

[3] = system: Escherichia coli ATCC 25922; assay: as above; type: cell-based; settings: Table S3; concentration at which 100% killing occurred, no bacterial regrowth; No = not active
Method: as §1

[4] = system: Caco-2; assay: Cytotoxicity by MTT assay; type: cell-based, human

Compound: Cc1cc2ccccc2n1C=CC1=[N+](C)c2ccccc2C1(C)C [4431/1, 1,3,3-trimethyl-2-(2-(2-methyl-1H-indol-1-yl)vinyl)-3H-1λ5-indole]
- Binding on Lipid II? [1]: No
- active against S.aureus (IC100%) [2]: 250 µM
- active against E.coli (IC100%) [3]: No
- cytotoxic for Caco II (C50% survival) [4]: No

Compound: CN(C)c1ccc(C(c2ccc(N(C)C)cc2)C(O)c2ccccc2)cc1 (stereo not drawn) [35487/2, 2,2-bis(4-(dimethylamino)phenyl)-1-phenylethanol]
- Binding on Lipid II? [1]: No
- active against S.aureus (IC100%) [2]: No
- active against E.coli (IC100%) [3]: No
- cytotoxic for Caco II (C50% survival) [4]: No

Compound: CN(C)c1ccc(C2C=C(c3ccccc3)Oc3ccccc32)cc1 (stereo not drawn) [55870/1, N,N-dimethyl-4-(2-phenyl-4H-chromen-4-yl)aniline]
- Binding on Lipid II? [1]: Yes
- active against S.aureus (IC100%) [2]: 250 µM
- active against E.coli (IC100%) [3]: No
- IC50 [4]: 25.9 µM

Compound: CCN1C(=CC(C)=Cc2sc3ccccc3[n+]2CC)Sc2ccccc21 [96932/4, 3-ethyl-2-(3-(3-ethyl-1,3-benzothiazol-2(3H)-ylidene)-2-methyl-1-propenyl)-1,3λ5-benzothiazole]
- Binding on Lipid II? [1]: No
- active against S.aureus (IC100%) [2]: 15,6 µM
- active against E.coli (IC100%) [3]: 15.625 µM
- IC50 [4]: 19 µM

Compound: OC(c1cccc2ccccc12)c1c2ccccc2cc2ccccc12 (stereo not drawn) [179415/1, 9-anthryl(1-naphthyl)methanol]
- Binding on Lipid II? [1]: Yes
- active against S.aureus (IC100%) [2]: 3,9 µM
- active against E.coli (IC100%) [3]: No
- cytotoxic for Caco II (C50% survival) ([4]; Table S3, No = not cytotoxic): No

Compound: CCN1C(=CC(C)=Cc2sc3ccc4ccccc4c3[n+]2CC)Sc2ccc3ccccc3c21 [290437/2, 1-ethyl-2-(3-(1-ethylnaphtho[1,2-d][1,3]thiazol-2(1H)-ylidene)-2-methyl-1-propenyl)-1λ5-naphtho[1,2-d][1,3]thiazole]
- Binding on Lipid II? [1]: No
- IC50 [4]: 2.2 µM

Compound: Cc1cc(C2c3ccccc3-c3ccccc32)cc(C)c1O [610995/1, 4-(9H-fluoren-9-yl)-2,6-dimethylphenol]
- Binding on Lipid II? [1]: Yes
- active against S.aureus (IC100%) [2]: 125 µM
- active against E.coli (IC100%) [3]: No
- IC50 [4]: 9.2 µM

Compound: OCC(CO)C1c2cccc3ccc4cccc1c4c23 [625586/1, 2-(4H-cyclopenta[def]phenanthren-4-yl)-1,3-propanediol]
- Binding on Lipid II? [1]: No
- active against S.aureus (IC100%) [2]: No
- active against E.coli (IC100%) [3]: No
- IC50 [4]: 83.8 µM

Compound: COc1ccc(C=C[c+]2cc(-c3ccccc3)cc(-c3ccccc3)o2)cc1 [BAS00138032, 2-[2-(4-Methoxy-phenyl)-vinyl]-4,6-diphenyl-pyranylium]
- Binding on Lipid II? [1]: No
- active against S.aureus (IC100%) [2]: No
- active against E.coli (IC100%) [3]: No
- cytotoxic for Caco II (C50% survival) [4]: No

Compound: CC(C)(C)c1csc(N2N=C(c3ccccc3)C(=NNc3ccccc3)C2=O)n1 [BAS00691248, 2-(4-tert-Butyl-thiazol-2-yl)-5-phenyl-4-(phenyl-hydrazono)-2,4-dihydro-pyrazol-3-one]
- Binding on Lipid II? [1]: No
- active against S.aureus (IC100%) [2]: No
- active against E.coli (IC100%) [3]: No
- cytotoxic for Caco II (C50% survival) [4]: No

Compound: CCN(CC)CCCN1CN(CCCN(CC)CC)CN(CCCN(CC)CC)C1 [Compound 000A-0859, (3-{3,5-bis[3-(diethylamino)propyl]-1,3,5-triazinan-1-yl}propyl)diethylamine]
- Binding on Lipid II? [1]: Yes
- active against S.aureus (IC100%) [2]: 500 µM
- active against E.coli (IC100%) [3]: 500 µM
- IC50 [4]: 419 µM

Compound: OCCSc1c(F)c(SCCO)c(SCCO)c(F)c1SCCO [Compound 0438-0367, 2-({2,5-difluoro-3,4,6-tris[(2-hydroxyethyl)sulfanyl]phenyl}sulfanyl)ethan-1-ol]
- Binding on Lipid II? [1]: No
- active against S.aureus (IC100%) [2]: No
- active against E.coli (IC100%) [3]: No
- cytotoxic for Caco II (C50% survival) [4]: No

Compound: c1ccc(-c2nc(N(c3ccccc3)c3ccccc3)s[n+]2-c2ccccc2)cc1 [Compound 1492-0330, 5-(diphenylamino)-2,3-diphenyl-1,2$l^5,4-thiadiazol-2-ylium]
- Binding on Lipid II? [1]: Yes

Compound: CN1/C(=C/C=C2/SC(=S)N(c3ccccc3)C2=O)C(C)(C)c2ccccc21 [Compound 2101-0102, (5E)-3-phenyl-2-sulfanylidene-5-{2-[(2E)-1,3,3-trimethyl-2,3-dihydro-1H-indol-2-ylidene]ethylidene}-1,3-thiazolidin-4-one]
- active against S.aureus (IC100%) [2]: No
- cytotoxic for Caco II (C50% survival) [4]: No

Compound: Cc1cc2c(cc1C)CSC(c1ccc(O)cc1)SC2 [Compound 2729-1114, 4-(7,8-dimethyl-3,5-dihydro-1H-2,4-benzodithiepin-3-yl)phenol]
- Binding on Lipid II? [1]: No
- active against S.aureus (IC100%) [2]: No
- active against E.coli (IC100%) [3]: No
- IC50 ([4]; Table S3, No = not cytotoxic, read-out: cytotoxic for Caco II (C50% survival)): 119 µM

Compound: CN(C)c1ccc(C=C2C=C(c3ccccc3)OC(c3ccccc3)=C2)cc1 [Compound 3377-0105, 4-[(2,6-diphenyl-4H-pyran-4-ylidene)methyl]-N,N-dimethylaniline]
- Binding on Lipid II? [1]: No
- active against S.aureus (IC100%) [2]: 500 µM
- active against E.coli (IC100%) [3]: No
- IC50 [4]: 100 µM

Compound: CCC[N+](CC#CCO)(CC#Cc1ccccc1)CCC [Compound 4636-0141, (4-hydroxybut-2-yn-1-yl)(3-phenylprop-2-yn-1-yl)dipropylazanium]
- Binding on Lipid II? [1]: No
- active against S.aureus (IC100%) [2]: No
- active against E.coli (IC100%) [3]: No
- cytotoxic for Caco II (C50% survival) [4]: No

Compound: CCN1C(=O)C(c2ccc(O)cc2)(c2ccc(O)cc2)c2ccccc21 [Compound 4896-3423, 1-ethyl-3,3-bis(4-hydroxyphenyl)-2,3-dihydro-1H-indol-2-one]
- active against S.aureus (IC100%) [2]: No
- IC50 [4]: 72.1 µM

Compound: Fc1ccccc1CN1CCC(N2CCN(c3ccccc3)CC2)CC1 [Compound 5607-0206, 1-{1-[(2-fluorophenyl)methyl]piperidin-4-yl}-4-phenylpiperazine]
- Binding on Lipid II? [1]: No
- active against S.aureus (IC100%) [2]: No
- active against E.coli (IC100%) [3]: No
- cytotoxic for Caco II (C50% survival) ([4]; Table S3, No = not cytotoxic): No

Compound: O=Cc1ccc2c(c1)C1c3ccccc3C2c2ccccc21 [Compound 5100004, pentacyclo[6.6.6.0^{2,7}.0^{9,14}.0^{15,20}]icosa-2,4,6,9,11,13,15,17,19-nonaene-4-carbaldehyde]
- Binding on Lipid II? [1]: No
- active against S.aureus (IC100%) [2]: No
- active against E.coli (IC100%) [3]: No
- cytotoxic for Caco II (C50% survival) [4]: No

Compound: OCc1ccc2c(c1)C1c3ccccc3C2c2ccccc21 [Compound 5100015, pentacyclo[6.6.6.0~2,7~.0~9,14~.0~15,20~]icosa-2,4,6,9,11,13,15,17,19-nonaen-4-ylmethanol]
- Binding on Lipid II? [1]: No
- active against S.aureus (IC100%) [2]: 500 µM
- active against E.coli (IC100%) [3]: No
- IC50 [4]: 68 µM

Compound: CC[n+]1c(/C=C/C=C2C=C(/C=C/N(C(C)=O)c3ccccc3)CC(C)(C)C/2)sc2ccccc21.[I-] [Compound 5119716, 2-[(1E)-3-[(1E)-5,5-dimethyl-3-[(E)-2-(N-phenylacetamido)ethenyl]cyclohex-2-en-1-ylidene]prop-1-en-1-yl]-3-ethyl-1,3-benzothiazol-3-ium iodide]
- Binding on Lipid II? [1]: No
- active against S.aureus (IC100%) [2]: 125 µM
- active against E.coli (IC100%) [3]: No
- IC50 [4]: 52.7 µM

Compound: Cc1cc(C2(c3ccc(O)c(C)c3)C(=O)N(Cc3ccccc3)c3ccccc32)ccc1O [Compound 5142587, 1-benzyl-3,3-bis(4-hydroxy-3-methylphenyl)-2,3-dihydro-1H-indol-2-one]
- Binding on Lipid II? [1]: No
- active against S.aureus (IC100%) [2]: 15,625 µM
- active against E.coli (IC100%) [3]: No
- IC50 [4]: 4.4 µM

Compound: Oc1ccc(O)c2c1C1c3ccccc3C2c2ccccc21 [Compound 5190620, pentacyclo[6.6.6.0^{2,7}.0^{9,14}.0^{15,20}]icosa-2(7),3,5,9,11,13,15,17,19-nonaene-3,6-diol]
- Binding on Lipid II? [1]: No
- active against S.aureus (IC100%) [2]: 62,5 µM
- active against E.coli (IC100%) [3]: No
- IC50 [4]: 3.7 µM

Compound: OCCSc1ccc(Cc2ccc(SCCO)cc2)cc1 [Compound 5210734, 2,2'-[methylenebis(4,1-phenylenethio)]diethanol]
- Binding on Lipid II? [1]: No
- active against S.aureus (IC100%) [2]: No
- active against E.coli (IC100%) [3]: No
- cytotoxic for Caco II (C50% survival) [4]: No

Compound: OCCSc1ccc(-c2ccc(SCCO)cc2)cc1 [Compound 5230234, 2,2'-[4,4'-biphenyldiylbis(thio)]diethanol]
- Binding on Lipid II? [1]: No
- active against S.aureus (IC100%) [2]: No
- active against E.coli (IC100%) [3]: No
- cytotoxic for Caco II (C50% survival) ([4]; Table S3, No = not cytotoxic): No

Compound: HNP-1 R24A: single alanine mutant of HNP-1, Arg24 replaced by alanine
- binding to Lipid II compared to wild-type HNP-1 ([1]; 10 µM peptide, 40 RUs 3-Lipid II): maintained significant binding

— PMC3820767, “Turning Defense into Offense: Defensin Mimetics as Novel Antibiotics Targeting Lipid II” (PLoS Pathogens, 2013)
